# The source made the active and inactive calls.
# Columns and labels:
# [1] = Counterscreen for activators of the function of SWI/SNF related, matrix associated, actin dependent regulator of chromatin, subfamily a, member 2 (SMARCA2, BRM): Luminescence-based cell-based high throughput dose response assay to identify non-selective compounds using the VP16 reporter assay.; format: functional
# [2] = target: E3 ubiquitin-protein ligase UHRF1 (Homo sapiens, UniProt Q96T88); test: Counterscreen for inhibitors of 5-meCpG-binding domain protein 2 (MBD2): TRFRET-based biochemical high throughput dose response assay to identify inhibitors of binding of ubiquitin-like with PHD and ring finger domains 1 (UHRF1) to methylated oligonucleotide.
# E3 ubiquitin-protein ligase UHRF1, sequence (Q96T88 whole entry, the tested form may be a part): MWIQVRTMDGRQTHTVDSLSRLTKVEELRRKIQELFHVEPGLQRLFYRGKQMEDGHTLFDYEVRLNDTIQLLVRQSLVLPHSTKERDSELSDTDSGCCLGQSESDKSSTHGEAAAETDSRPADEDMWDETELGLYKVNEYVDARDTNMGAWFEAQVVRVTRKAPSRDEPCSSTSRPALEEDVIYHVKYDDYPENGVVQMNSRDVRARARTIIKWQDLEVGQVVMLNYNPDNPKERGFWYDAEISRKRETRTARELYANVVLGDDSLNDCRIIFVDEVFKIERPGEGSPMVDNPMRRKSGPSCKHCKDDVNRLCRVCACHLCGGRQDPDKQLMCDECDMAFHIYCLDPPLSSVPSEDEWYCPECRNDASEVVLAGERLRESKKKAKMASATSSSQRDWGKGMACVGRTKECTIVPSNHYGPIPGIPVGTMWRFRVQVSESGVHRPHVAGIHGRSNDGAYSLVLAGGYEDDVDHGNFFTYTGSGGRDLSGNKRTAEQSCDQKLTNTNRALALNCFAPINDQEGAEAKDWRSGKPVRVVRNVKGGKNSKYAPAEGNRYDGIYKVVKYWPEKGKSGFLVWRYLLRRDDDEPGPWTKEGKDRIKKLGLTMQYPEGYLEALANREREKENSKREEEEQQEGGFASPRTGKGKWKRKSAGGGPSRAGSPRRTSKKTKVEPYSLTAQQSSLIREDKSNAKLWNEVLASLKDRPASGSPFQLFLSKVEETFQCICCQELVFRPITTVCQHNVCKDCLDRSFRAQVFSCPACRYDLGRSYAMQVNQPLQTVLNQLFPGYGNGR
# [3] = target: SWI/SNF-related matrix-associated actin-dependent regulator of chromatin subfamily A member 2 (Homo sapiens, UniProt P51531); test: Luminescence-based cell-based high throughput dose response assay to identify activators of the function of SWI/SNF related, matrix associated, actin dependent regulator of chromatin, subfamily a, member 2 (SMARCA2, BRM).; format: functional
# SWI/SNF-related matrix-associated actin-dependent regulator of chromatin subfamily A member 2, sequence (P51531 whole entry): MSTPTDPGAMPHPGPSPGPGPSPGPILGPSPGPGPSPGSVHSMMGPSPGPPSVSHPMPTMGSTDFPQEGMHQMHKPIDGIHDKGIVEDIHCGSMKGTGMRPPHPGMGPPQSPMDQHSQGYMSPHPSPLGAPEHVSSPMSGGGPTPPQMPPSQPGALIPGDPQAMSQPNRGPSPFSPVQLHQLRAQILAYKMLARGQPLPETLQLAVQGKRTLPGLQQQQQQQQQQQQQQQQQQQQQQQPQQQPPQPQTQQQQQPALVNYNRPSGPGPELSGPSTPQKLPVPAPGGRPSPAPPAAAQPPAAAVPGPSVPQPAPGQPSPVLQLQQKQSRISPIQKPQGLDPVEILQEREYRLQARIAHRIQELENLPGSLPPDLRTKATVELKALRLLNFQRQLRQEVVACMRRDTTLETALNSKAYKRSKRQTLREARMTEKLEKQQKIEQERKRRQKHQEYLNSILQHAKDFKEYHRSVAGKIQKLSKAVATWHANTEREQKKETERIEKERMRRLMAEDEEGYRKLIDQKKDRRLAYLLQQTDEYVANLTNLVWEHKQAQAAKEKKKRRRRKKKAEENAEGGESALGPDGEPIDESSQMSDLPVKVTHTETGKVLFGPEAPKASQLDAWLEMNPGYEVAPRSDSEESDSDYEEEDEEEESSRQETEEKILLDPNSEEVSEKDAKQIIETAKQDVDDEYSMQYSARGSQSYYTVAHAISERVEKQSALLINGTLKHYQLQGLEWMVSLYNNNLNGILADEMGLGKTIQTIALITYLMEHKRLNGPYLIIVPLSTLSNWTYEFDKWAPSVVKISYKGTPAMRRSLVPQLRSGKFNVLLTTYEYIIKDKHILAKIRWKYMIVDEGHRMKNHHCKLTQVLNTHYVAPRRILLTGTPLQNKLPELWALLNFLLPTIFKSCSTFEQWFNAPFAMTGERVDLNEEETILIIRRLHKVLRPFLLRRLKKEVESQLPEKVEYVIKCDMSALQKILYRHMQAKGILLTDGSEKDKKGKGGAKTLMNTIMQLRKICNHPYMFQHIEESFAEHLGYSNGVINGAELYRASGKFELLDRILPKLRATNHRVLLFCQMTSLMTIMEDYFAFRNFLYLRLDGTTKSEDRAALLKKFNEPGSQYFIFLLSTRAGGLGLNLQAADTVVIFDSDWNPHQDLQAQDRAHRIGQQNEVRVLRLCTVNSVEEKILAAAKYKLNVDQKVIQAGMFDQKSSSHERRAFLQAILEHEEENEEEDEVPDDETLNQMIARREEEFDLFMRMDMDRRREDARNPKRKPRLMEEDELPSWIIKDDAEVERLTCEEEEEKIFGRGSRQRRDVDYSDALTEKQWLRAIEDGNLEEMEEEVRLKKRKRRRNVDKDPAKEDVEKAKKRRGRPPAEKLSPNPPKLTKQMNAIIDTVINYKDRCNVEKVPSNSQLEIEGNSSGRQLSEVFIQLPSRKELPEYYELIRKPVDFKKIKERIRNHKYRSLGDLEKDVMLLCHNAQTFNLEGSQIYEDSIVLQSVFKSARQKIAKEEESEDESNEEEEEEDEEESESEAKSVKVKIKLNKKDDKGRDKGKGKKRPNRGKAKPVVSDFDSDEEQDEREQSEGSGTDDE
# Caspase-6 = Caspase-6 (Homo sapiens, UniProt P55212); test: inhibition of CASP6 peptide cleavage – biochemical, VEID-R110 fluorescence, cherry-pick, dose response (AID 720632)
# Caspase-6, sequence (P55212 24-179 limits assumed): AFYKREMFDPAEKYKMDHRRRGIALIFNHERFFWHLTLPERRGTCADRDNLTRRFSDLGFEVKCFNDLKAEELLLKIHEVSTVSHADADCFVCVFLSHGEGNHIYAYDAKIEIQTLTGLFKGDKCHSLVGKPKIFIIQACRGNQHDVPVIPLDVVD
# Caspase-6, sequence (P55212 194-293 limits assumed): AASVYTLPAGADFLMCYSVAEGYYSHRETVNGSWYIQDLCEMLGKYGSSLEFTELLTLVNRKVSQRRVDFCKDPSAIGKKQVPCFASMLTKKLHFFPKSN
# [4] = target: Disintegrin and metalloproteinase domain-containing protein 17 (Homo sapiens, UniProt P78536); test: exosite inhibitors of ADAM17, dose response, biochemical (AID 743260)
# Disintegrin and metalloproteinase domain-containing protein 17, sequence (P78536 whole entry, the tested form may be a part): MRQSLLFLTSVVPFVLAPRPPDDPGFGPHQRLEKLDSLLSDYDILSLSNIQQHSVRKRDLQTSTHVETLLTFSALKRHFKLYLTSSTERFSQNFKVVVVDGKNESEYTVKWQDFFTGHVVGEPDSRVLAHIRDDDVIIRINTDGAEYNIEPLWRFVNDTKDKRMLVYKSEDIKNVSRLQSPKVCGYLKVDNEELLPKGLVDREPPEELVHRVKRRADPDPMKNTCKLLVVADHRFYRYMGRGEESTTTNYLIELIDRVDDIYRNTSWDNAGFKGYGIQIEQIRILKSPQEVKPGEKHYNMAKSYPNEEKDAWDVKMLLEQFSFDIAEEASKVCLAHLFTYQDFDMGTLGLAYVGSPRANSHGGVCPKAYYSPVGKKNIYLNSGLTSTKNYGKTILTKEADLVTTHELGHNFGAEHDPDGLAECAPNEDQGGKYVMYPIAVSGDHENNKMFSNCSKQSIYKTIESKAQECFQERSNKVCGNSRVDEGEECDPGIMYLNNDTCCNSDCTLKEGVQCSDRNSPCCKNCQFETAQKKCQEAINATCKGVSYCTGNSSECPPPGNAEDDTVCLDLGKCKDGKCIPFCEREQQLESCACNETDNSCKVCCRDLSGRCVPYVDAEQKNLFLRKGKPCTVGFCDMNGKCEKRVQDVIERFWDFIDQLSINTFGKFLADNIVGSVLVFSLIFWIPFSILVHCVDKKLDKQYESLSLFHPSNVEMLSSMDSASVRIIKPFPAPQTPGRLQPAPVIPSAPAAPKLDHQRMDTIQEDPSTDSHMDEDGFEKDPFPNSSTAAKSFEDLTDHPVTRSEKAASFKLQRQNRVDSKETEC
# [5] = inhibition of ADAM10 peptide cleavage – biochemical, FRET peptide substrate, recombinant human ADAM10, selectivity assay for ADAM17 exosite inhibitor project, dose response (AID 743259);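 note: ADAM10 enzyme cleaving a FRET peptide substrate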
# [6] = ATP-based viability loss in HEK293T cells – cell-based, CellTiter-Glo luminescence, cherry-picked samples, set 4, cytotoxicity control, dose response (AID 743441); format: functional; settings: HEK293
# [7] = A549 lung cell viability reduction – CellTiter-Glo luminescence, cherry-pick, cytotoxicity control, dose response (AID 743484); format: functional, cell-based
# [8] = target: 1-phosphatidylinositol 4,5-bisphosphate phosphodiesterase beta-3 (Homo sapiens, UniProt Q01970); test: Fluorescence-based biochemical high throughput dose response assay to identify inhibitors of phospholipase C isozymes (PLC-B3).
# [9] = target: 1-phosphatidylinositol 4,5-bisphosphate phosphodiesterase gamma-1 (Homo sapiens, UniProt P19174); test: Counterscreen for inhibitors of phospholipase C isozymes (PLC-B3): Fluorescence-based biochemical high throughput dose response assay to identify inhibitors of phospholipase C isozymes (PLC-gamma1).
# [10] = OV-90 cell viability loss – plate reader, dry powder, SA8, PAX8 inhibitor project, dose response (AID 743149); format: functional, cell-based
# [11] = PAX8-dependent cell viability loss – plate reader, dry powder, dose response (AID 743049); format: functional, cell-based
# [12] = PAX5 cellular inhibition readout – cell-based, plate reader, dry powder samples, selectivity assay for PAX8 inhibitor project, dose response (AID 743047); format: functional;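 note: HEK293 cells carrying a Pax5 driven CD19 promoter luciferase reporter; potency of inhibitors that lower reporter luminescence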
# [13] = inhibitors acting on PAX2 in cells – cell-based, plate reader, dry powder samples, selectivity assay for PAX8 inhibitor project, dose response (AID 743048); format: functional;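 note: HEK293 cells carrying a WT1 promoter luciferase reporter driven by expressed Pax2; potency is for inhibition of Pax2 driven reporter signal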
# [14] = OVCAR-3 cell viability loss – plate reader, dry powder samples, PAX8 inhibitor project, dose response (AID 743044); format: functional, cell-based
# Paired box protein Pax-8 = Paired box protein Pax-8 (Homo sapiens, UniProt Q06710); test: PAX8 transcriptional activity inhibition in RMG-I – RMG-I cells, luciferase, cherry-pick, dose response (AID 687027); format: functional, cell-based;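 note: luciferase reporter driven by Pax8 target thyroperoxidase promoter measured by SteadyGlo luminescence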
# Paired box protein Pax-8, sequence (Q06710 whole entry): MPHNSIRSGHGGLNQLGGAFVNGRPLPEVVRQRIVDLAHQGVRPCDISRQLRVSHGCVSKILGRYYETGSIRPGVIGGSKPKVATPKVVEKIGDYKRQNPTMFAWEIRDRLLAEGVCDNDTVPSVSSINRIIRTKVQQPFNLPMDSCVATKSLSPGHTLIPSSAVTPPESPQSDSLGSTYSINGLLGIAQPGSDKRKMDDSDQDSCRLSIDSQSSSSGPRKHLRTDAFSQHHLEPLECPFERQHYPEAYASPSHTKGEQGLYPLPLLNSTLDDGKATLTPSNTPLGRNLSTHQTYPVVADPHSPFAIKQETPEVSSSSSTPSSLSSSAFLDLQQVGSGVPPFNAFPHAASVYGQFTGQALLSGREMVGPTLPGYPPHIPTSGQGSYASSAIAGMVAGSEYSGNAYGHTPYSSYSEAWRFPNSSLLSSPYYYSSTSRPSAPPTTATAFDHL
# fMet-Leu-Phe receptor = fMet-Leu-Phe receptor (Homo sapiens, UniProt P21462); test: formyl peptide receptor binders – dose response (AID 519); format: functional
# fMet-Leu-Phe receptor, sequence (P21462 whole entry): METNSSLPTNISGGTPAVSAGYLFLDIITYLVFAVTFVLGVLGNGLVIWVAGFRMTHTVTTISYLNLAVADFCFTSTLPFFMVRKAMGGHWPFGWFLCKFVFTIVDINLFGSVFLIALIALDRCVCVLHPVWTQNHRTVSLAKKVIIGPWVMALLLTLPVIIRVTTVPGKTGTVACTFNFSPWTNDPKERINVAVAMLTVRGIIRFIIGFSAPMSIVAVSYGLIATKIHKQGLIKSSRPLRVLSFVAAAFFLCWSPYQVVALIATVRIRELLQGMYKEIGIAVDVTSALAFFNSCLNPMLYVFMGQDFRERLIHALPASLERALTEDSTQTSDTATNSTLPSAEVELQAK
# [15] = target: Potassium channel subfamily K member 3 (Homo sapiens, UniProt O14649); test: inhibition of human KCNK3 channel flux – CHO cells, FluxOR thallium flux, SAR follow-up (AID 652212); format: functional
# Potassium channel subfamily K member 3, sequence (O14649 whole entry): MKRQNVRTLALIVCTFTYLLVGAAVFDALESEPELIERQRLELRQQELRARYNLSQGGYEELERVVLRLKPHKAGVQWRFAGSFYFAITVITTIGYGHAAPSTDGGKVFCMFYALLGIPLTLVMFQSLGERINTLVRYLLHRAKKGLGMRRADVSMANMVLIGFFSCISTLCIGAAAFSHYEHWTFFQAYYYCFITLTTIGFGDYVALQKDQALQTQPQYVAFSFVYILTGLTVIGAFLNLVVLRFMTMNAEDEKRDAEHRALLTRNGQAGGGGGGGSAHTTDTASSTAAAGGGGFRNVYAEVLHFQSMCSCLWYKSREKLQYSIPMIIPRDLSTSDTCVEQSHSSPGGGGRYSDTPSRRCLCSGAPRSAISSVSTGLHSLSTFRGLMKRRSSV
# [16] = viability loss in HepG2 hepatoma cells – cell-based, ATP luminescence, cherry-pick, activator set 2, cytotoxicity control, dose response (AID 1053143); format: functional
# [17] = Luminescence Cell-Based Dose Retest to Confirm Inhibitors of Cancer Stem Cells. [Related pubchem assays (depositor defined):AID2717, AID2721]; format: functional; settings: Homo sapiens
# [18] = target: T1, Methionyl-tRNA synthetase, putative (Trypanosoma brucei brucei, UniProt Q38C91); format: functional, Trypanosoma brucei brucei strain 927/4 GUTat10.1
# T1 sequence (Q38C91 whole entry): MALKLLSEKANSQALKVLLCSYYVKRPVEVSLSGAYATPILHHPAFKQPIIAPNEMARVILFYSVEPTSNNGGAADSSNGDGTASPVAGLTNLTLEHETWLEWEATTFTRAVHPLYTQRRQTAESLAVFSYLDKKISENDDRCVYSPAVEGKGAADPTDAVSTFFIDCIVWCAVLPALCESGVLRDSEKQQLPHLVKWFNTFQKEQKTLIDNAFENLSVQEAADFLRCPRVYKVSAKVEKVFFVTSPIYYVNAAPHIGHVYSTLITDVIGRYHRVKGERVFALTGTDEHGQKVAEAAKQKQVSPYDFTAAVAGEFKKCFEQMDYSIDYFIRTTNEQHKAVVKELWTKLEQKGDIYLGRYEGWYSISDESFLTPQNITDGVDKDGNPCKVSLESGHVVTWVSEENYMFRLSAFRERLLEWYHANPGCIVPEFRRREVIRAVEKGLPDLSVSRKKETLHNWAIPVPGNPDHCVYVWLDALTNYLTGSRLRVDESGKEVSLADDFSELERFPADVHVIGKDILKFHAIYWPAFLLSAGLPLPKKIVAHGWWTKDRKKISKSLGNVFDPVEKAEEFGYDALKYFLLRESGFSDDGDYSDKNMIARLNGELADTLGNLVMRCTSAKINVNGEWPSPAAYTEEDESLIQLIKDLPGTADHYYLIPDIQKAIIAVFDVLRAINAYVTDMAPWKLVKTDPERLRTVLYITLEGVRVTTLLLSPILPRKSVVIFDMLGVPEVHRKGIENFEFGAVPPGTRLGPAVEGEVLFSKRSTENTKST
# [19] = Counterscreen for inhibitors of Trypanosoma brucei methionyl tRNA synthetase (MetRS): Luminescence-based cell-based high throughput dose response assay to identify compounds that are cytotoxic to Jurkat human T lymphocyte cells.; format: functional
# [20] = Late stage counterscreen for inhibitors of Trypanosoma brucei methionyl tRNA synthetase (MetRS): Luminescence-based cell-based high throughput dose response assay to identify compounds that are cytotoxic to Jurkat human T lymphocyte cells.; format: functional
# [21] = target: T1, Methionyl-tRNA synthetase, putative; format: functional, Trypanosoma brucei brucei strain 927/4 GUTat10.1; remark: listed apart in the source
# Kallikrein-7 = Kallikrein-7 (Homo sapiens, UniProt P49862); test: Fluorescence Intensity-based biochemical primary high throughput dose response assay to identify activators of kallikrein-7 (K7) zymogen.
# Kallikrein-7, sequence (P49862 whole entry, the tested form may be a part): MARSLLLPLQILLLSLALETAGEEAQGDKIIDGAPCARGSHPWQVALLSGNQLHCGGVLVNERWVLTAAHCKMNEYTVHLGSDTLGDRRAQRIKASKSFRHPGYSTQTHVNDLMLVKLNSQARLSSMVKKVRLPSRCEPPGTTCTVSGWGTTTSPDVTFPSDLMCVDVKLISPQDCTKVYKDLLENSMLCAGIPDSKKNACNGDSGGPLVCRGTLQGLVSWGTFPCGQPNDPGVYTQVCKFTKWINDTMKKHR
# [22] = target: T2, Oxysterols receptor LXR-beta (Homo sapiens, UniProt P55055); format: functional, cell-based;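 note: agonist activity at LXR measured by a cell-based luminescence readout across a dose range, run as a counterscreen for daf-12 agonists; HEK293 cells with Gal4-LXR fusion and GAL4-driven luciferase reporter; potency for activation of Gal4-LXR reporter so compounds are agonists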
# T2 sequence (P55055 whole entry): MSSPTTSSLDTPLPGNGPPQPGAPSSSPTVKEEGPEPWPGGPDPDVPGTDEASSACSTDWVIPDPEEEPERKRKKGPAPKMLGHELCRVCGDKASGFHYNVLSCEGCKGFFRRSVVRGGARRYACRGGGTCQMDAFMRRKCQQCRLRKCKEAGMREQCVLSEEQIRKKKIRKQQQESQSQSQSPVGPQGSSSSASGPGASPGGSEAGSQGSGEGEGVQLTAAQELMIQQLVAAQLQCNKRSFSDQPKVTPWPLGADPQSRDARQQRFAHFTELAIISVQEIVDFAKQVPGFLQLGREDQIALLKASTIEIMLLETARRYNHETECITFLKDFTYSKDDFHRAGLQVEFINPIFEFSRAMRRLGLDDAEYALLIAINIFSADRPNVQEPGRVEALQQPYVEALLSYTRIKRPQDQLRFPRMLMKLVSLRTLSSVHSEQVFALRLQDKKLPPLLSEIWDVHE
# [23] = HEK293 Cytotoxicity Assay Measured in Cell-Based System Using Plate Reader - 7071-01_Inhibitor_Dose_CherryPick_Activity_Set2.; format: functional
# HeLa = test: viability loss in HeLa cells – cell-based, ATP luminescence, cherry-pick samples, cytotoxicity control, dose response (AID 687004); format: functional; settings: Homo sapiens
# HEK293 = test: viability loss in HEK293T cells – cell-based, ATP luminescence, cherry-pick samples, cytotoxicity control, dose response (AID 687005); format: functional; settings: Homo sapiens;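 note: cells exposed to compound for 48 hours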
# [24] = viability loss in A549 lung cells – cell-based, 24 h, CellTiter-Glo luminescence, cherry-picks, cytotoxicity control, dose response (AID 1053115); format: functional; settings: A549, 24 h
# [25] = inhibitors of non-replicating M. tuberculosis, dose response, luciferase, dry powder (AID 651619); format: functional; settings: Mycobacterium tuberculosis
# [26] = inhibitors of non-replicating M. tuberculosis, dose response, luciferase, dry powder (AID 651620); format: functional; settings: Mycobacterium tuberculosis
# [27] = growth inhibition of replicating M. tuberculosis, dose response, counter-screen, dry powder, IC90 (AID 651617); format: functional; settings: Mycobacterium tuberculosis
# [28] = growth inhibition of SK-MEL-5 melanoma cells – cell-based, CellTiter-Glo luminescence, dry powder, set 8, orthogonal assay for MITF inhibitor project, dose response (AID 651586); format: functional
# [29] = MITF: Counter assay: A375 proliferation Measured in Cell-Based System Using Plate Reader - 2084-03_Inhibitor_Dose_DryPowder_Activity_Set8.; format: functional; settings: A-375
# [30] = inhibitors of TRPM1-promoter reporter in SK-MEL-5 – cell-based, luciferase, dry powder, set 8, MITF inhibitor project, dose response (AID 624430); format: functional
# [31] = cytotoxicity in MITF-independent A375 cells – cell-based, CellTiter-Glo luminescence, dry powder, set 9, counter-screen for MITF modulator project, dose response (AID 651591); format: functional; settings: A-375
# [32] = growth inhibition of MALME3 cells – cell-based, CellTiter-Glo luminescence, dry powder, set 5, orthogonal assay for MITF inhibitor project, dose response (AID 651584); format: functional; settings: MALME-3
# [33] = MITF Orthogonal Assay: MALME3 CTG Assay Measured in Cell-Based System Using Plate Reader - 2084-04_Inhibitor_Dose_DryPowder_Activity_Set6.; format: functional; settings: MALME-3
# [34] = MITF Orthogonal Assay: SK-MEL-5 CTG Assay Measured in Cell-Based System Using Plate Reader - 2084-02_Inhibitor_Dose_DryPowder_Activity_Set7.; format: functional
# [35] = inhibitors of TRPM1-promoter reporter in SK-MEL-5 – cell-based, luciferase, dry powder, set 9, MITF inhibitor project, dose response (AID 651588); format: functional
# [36] = Late stage assay provider results from the probe development effort to identify selective inhibitors of heat shock protein 90 (HSP90): Absorbance-based cell proliferation assay in SKBR3 cells.; format: functional; settings: SK-BR-3
# [37] = Late stage assay provider results from the probe development effort to identify selective inhibitors of heat shock protein 90 (HSP90): Absorbance-based cell proliferation assay in MCF7 cells.; format: functional
# [38] = HepG2 cell viability loss – cherry-picked samples, cytotoxicity control, dose response (AID 1053183); format: functional, cell-based
compound,measurement,setting,value
COc1cccc2nc3c(C(=O)NCCN(C)C)cccc3cc12,EC50,[1],> 91.2 µM (inactive)
same,IC50,[2],> 43.8 µM (inactive)
same,EC50,[3],> 10.1 µM (inactive)
Cc1cc(C2(O)C(=O)Nc3ccccc32)ccc1F (centres undefined),AC50,Caspase-6,13 µM (active)
CC(C)C(NS(=O)(=O)c1c(Cl)cccc1Cl)C(=O)OCC(=O)c1c[nH]c2ccccc12 (centres undefined),IC50,[4],> 69.5 µM (inactive)
same,IC50,[5],> 7.72 µM (active)
C=CCNC(=O)c1ccccc1NC(=O)c1ccc(Cl)c(S(=O)(=O)Nc2cccc(C)c2C)c1,AC50,[6],36.7 µM (active)
same,AC50,[7],30.1 µM (active)
Cc1ccc(NC(=O)c2nn(C34CC5CC(CC(C5)C3)C4)cc2[N+](=O)[O-])cc1,IC50,[8],> 122 µM (inactive)
same,IC50,[9],> 122 µM (inactive)
CC(=O)N1CCOc2ccc(S(=O)(=O)N3CCN(c4cccc(C(F)(F)F)c4)CC3)cc21,AC50,[10],63 µM (active)
same,AC50,[11],94.5 µM (active)
same,AC50,[12],45.3 µM (active)
same,AC50,[13],30.9 µM (active)
same,AC50,[14],17.9 µM (active)
same,AC50,Paired box protein Pax-8,2.36 µM (active)
COc1ccc(OC)c(C2C(C(=O)c3ccccc3)=C(O)C(=O)N2Cc2ccco2)c1 (centres undefined),Ki,fMet-Leu-Phe receptor,3.4 µM (active)
O=C(Nc1cccc(NC(=O)c2cccc(F)c2)c1)c1ccccc1,IC50,[15],0.046 µM (active)
Cc1ccc(C(=O)Nc2ncc(Cc3ccccc3)s2)o1,AC50,[16],12 µM (active)
same,AC50,[17],0.319 µM (active)
CN(CC(=O)Nc1ccc(Cl)cc1)C(=O)c1ccc(-n2cncn2)c([N+](=O)[O-])c1,IC50,[18],2 µM (active)
same,IC50,[19],83.3 µM (inactive)
same,IC50,[20],> 83.3 µM (inactive)
same,IC50,[21],1.18 µM (active)
CSc1ccc(/C=C/C(=O)OCC(=O)NC2CCS(=O)(=O)C2)cc1 (centres undefined),EC50,Kallikrein-7,> 69.5 µM (inactive)
CC(C)C(N)c1csc(Nc2nncc3ccccc23)n1 (centres undefined),EC50,[22],> 67.1 µM (inactive)
Cc1ccccc1CN(C)C[C@H]1OCc2cn(nn2)CCCC(=O)N([C@@H](C)CO)C[C@H]1C,AC50,[23],46.7 µM (active)
same,AC50,HeLa,14.7 µM (active)
same,AC50,HEK293,46.7 µM (active)
N#Cc1ccc(-c2ccc3c(c2)[C@H]2[C@H](CCN2C(=O)C2CCCCC2)[C@H](CO)N3)cc1,AC50,[24],42 µM (active)
c1ccc(-n2cc(CSc3nnc(C4CCCC4)o3)nn2)cc1,IC90,[25],1 µM (active)
same,IC90,[26],1 µM (active)
same,IC90,[27],125 µM (active)
CC(C)N1CCN(C2=C(Nc3ccc(F)cc3)C(=O)c3ccccc3C2=O)CC1,AC50,[28],> 70 µM (inactive)
same,AC50,[29],> 70 µM (inactive)
same,AC50,[30],3.6 µM (active)
same,AC50,[31],> 70 µM (inactive)
same,AC50,[32],38.6 µM (active)
same,AC50,[33],38.6 µM (active)
same,AC50,[34],10.5 µM (active)
same,AC50,[35],9.77 µM (active)
COc1ccc(NC(=O)c2ccc(NC(=O)c3coc(=O)c(Br)c3)cc2)cc1,IC50,[36],27.2 µM (inactive)
same,IC50,[37],12.1 µM (inactive)
O=S(=O)(c1ccc(F)cc1)N1C[C@@H]2N[C@H](C1)[C@@H]2c1ccc(/C=C/c2ccccc2)cc1,AC50,[38],19.1 µM (active)
